Source: the NIST ThermoML archive (doi:10.1021/je400486p)
Numbers after ± are expanded uncertainties.

Assay: xn = mol fraction of the nth substance listed
Conditions: 101.3 kPa, Liquid; for viscosity: Concentric cylinders viscometry; for mass density: Vibrating tube method

COCCOCCOCCOCCOC [2,5,8,11,14-pentaoxapentadecane] + CCC(C)O
Conditions | mass density, 308.15 K [kg/m3] | mass density, 313.15 K [kg/m3] | mass density, 318.15 K [kg/m3] | mass density, 323.15 K [kg/m3] | viscosity, 308.15 K [mPa·s] | viscosity, 313.15 K [mPa·s] | viscosity, 318.15 K [mPa·s] | viscosity, 323.15 K [mPa·s]
x2 = 0 | 997.104 ± 0.23 | 992.481 ± 0.23 | 987.859 ± 0.23 | 983.234 ± 0.23 | 2.691 ± 0.032 | 2.426 ± 0.029 | 2.199 ± 0.026 | 2.006 ± 0.024
x2 = 0.1007 | 987.755 ± 0.21 | 983.135 ± 0.21 | 978.511 ± 0.21 | 973.877 ± 0.21 | 2.513 ± 0.03 | 2.269 ± 0.027 | 2.069 ± 0.025 | 1.892 ± 0.023
x2 = 0.2003 | 977.28 ± 0.2 | 972.669 ± 0.2 | 968.041 ± 0.2 | 963.397 ± 0.2 | 2.363 ± 0.028 | 2.139 ± 0.025 | 1.949 ± 0.023 | 1.787 ± 0.021
x2 = 0.3015 | 965.119 ± 0.18 | 960.509 ± 0.18 | 955.883 ± 0.18 | 951.237 ± 0.18 | 2.229 ± 0.026 | 2.022 ± 0.024 | 1.836 ± 0.022 | 1.687 ± 0.02
x2 = 0.3991 | 951.674 ± 0.17 | 947.072 ± 0.17 | 942.446 ± 0.17 | 937.792 ± 0.17 | 2.111 ± 0.025 | 1.914 ± 0.023 | 1.73 ± 0.021 | 1.591 ± 0.019
x2 = 0.5011 | 935.407 ± 0.16 | 930.813 ± 0.16 | 926.193 ± 0.16 | 921.533 ± 0.16 | 1.984 ± 0.023 | 1.796 ± 0.021 | 1.629 ± 0.019 | 1.495 ± 0.018
x2 = 0.6024 | 916.445 ± 0.15 | 911.86 ± 0.15 | 907.25 ± 0.15 | 902.591 ± 0.15 | 1.859 ± 0.022 | 1.681 ± 0.02 | 1.529 ± 0.018 | 1.402 ± 0.017
x2 = 0.6997 | 894.917 ± 0.15 | 890.367 ± 0.15 | 885.759 ± 0.15 | 881.097 ± 0.15 | 1.762 ± 0.02 | 1.59 ± 0.019 | 1.445 ± 0.017 | 1.32 ± 0.016
x2 = 0.7998 | 868.357 ± 0.15 | 863.83 ± 0.15 | 859.246 ± 0.15 | 854.581 ± 0.15 | 1.72 ± 0.02 | 1.54 ± 0.018 | 1.385 ± 0.016 | 1.259 ± 0.015
x2 = 0.9004 | 835.418 ± 0.16 | 830.95 ± 0.16 | 826.396 ± 0.16 | 821.735 ± 0.16 | 1.786 ± 0.02 | 1.575 ± 0.018 | 1.397 ± 0.016 | 1.243 ± 0.015
